Publication PMC5620277, “The histone methyltransferase EZH2 as a druggable target in SHH medulloblastoma cancer stem cells” (Oncotarget, 2017)

How the values were obtained:
[1] = tested on: DAOY-SLCs; test: Cell viability, MTS assay, DAOY-SLCs; assay type: cell-based; settings: 5 μM, after 72 h
Description: (§1) To evaluate cell viability cells were plated at a density of 5×10^3 cells/well in 96-well plates and were incubated with MTS solution (CellTiter 96® AQueous One Solution Promega).

[2] = tested on: mMB-SLCs; test: Western Blot of H3K27me3, PCNA, cleaved caspase 3 in mMB-SLCs; assay type: cell-based, mouse; settings: mMB-SLCs, 5 μM, 48 h
Description: Afterwards, we tested the ability of MC3629 (at 0.5, 5, and 25 μM) to inhibit the EZH2 enzymatic activity on a cell-based assay in vitro. The lower significant MC3629 dosage to decrease the H3K27me3 level in MB-SLCs was 5 μM (Figure 2C).
as §1
(§2) Western blots were performed according to standard procedures. Briefly, protein lysates were prepared using RIPA buffer with fresh protease inhibitors. Lysates were separated on SDS polyacrylamide gels. Proteins were transferred on nitrocellulose membrane (0.45 micron) (PerkinElmer). Membranes were blocked for 1 h at room temperature in 5% nonfat dry milk and incubated overnight at 4°C with antibodies against EZH2 (4905S Cell signaling), H3K27me3 (07-449 Millipore), PCNA (2586 Cell signaling), ACTIN (I-19 sc-1616; Santa Cruz Biotechnology), GAPDH (ab9484, Abcam), cleaved CSP-3 (D-175 9661S; Cell Signaling) and H3 (ab1971, Abcam). HRP-conjugated secondary antibodies (Santa Cruz Biotechnology) were used in combination with enhanced chemiluminescence (ECL Amersham).

[3] = tested on: DAOY-SLCs; test: Western Blot of H3K27me3 and PCNA in DAOY-SLCs; assay type: cell-based; settings: 5 μM, 48 h
Description: as §1, §2

[4] = tested on: hMB-SLCs; test: Self-renewal, clonogenic assay, hMB-SLCs; assay type: cell-based, human; settings: 5 μM
Description: (§3) For self-renewal assessment, clonogenic assay was performed as previously described. Briefly: oncospheres were disaggregated with non-enzymatic cell dissociation buffer (Sigma) and cells were plated at clonal density (1-2 cells/mm^2) into 96-well plates and cultured for an appropriate number of days (7-15) until oncospheres were countable.

[5] = tested on: hMB-SLCs; test: Western Blot of H3K27me3, PCNA, cleaved caspase 3 in hMB-SLCs; assay type: cell-based, human; settings: 5 μM, 48 h
Description: as §1, §2

[6] = tested on: DAOY cells; test: Western Blot of H3K27me3 and PCNA in DAOY cells; assay type: cell-based; settings: 5 μM, 48 h
Description: as §1, §2

[7] = tested on: mMB-SLCs; test: Self-renewal, clonogenic assay, mMB-SLCs; assay type: cell-based, mouse; settings: 5 μM
Description: as §3

[8] = PAMPA-BBB (porcine brain lipid extract artificial membrane); assay type: in vitro ADME; settings: for Papp at 24 h: Pe in cm/s, pH 7.4, 24 h, room temperature, triplicate, read-out: Log Pe (converted)
Description: Donor solution (500 μM or 250 μM) was prepared by diluting 10 or 5 mM DMSO compound stock solution using phosphate buffer (pH 7.4, 0.01 M). Filter membrane was coated with 5 μl of BBB-specific lipid solution prepared dissolving 16 mg of PBL (Avanti Lipids Polar, 141101P) in 600 μl of n-dodecane. Donor solution (150 μl) was added to each well of the filter plate. To each well of the acceptor plate 300 μl of solution (5% DMSO in phosphate buffer) were added. Each compound was tested in triplicate. The sandwich was incubated for 24 h at room temperature under gentle shaking. After the incubation time, the sandwich plates were separated and 250 μl of the acceptor plate were transferred to a UV quartz microtiter plate and measured by UV spectroscopy, using a Multiskan GO microplate spectrophotometer (Thermo Scientific) at 250−500 nm at step of 5 nm. Reference solutions (250 μl) were prepared diluting the sample stock solutions to the same concentration as that with no membrane barrier. The BBB permeability value Log Pe is determined applying the equation:
log Pe= log{C⋅(−ln(1−[drug]acceptor/[drug]equilibrium))},
where C=(VD⋅VA/(VD+VA)area⋅time)
In this equation, VA is the volume of the acceptor compartment (0.3 cm^3), VD is the donor volume (0.15 cm^3), area is the accessible filter area (0.24 cm^2), and time is the incubation time in seconds.

CC[C@H](C)n1cc(C)c2c(C(=O)NCc3c(C)cc(C)[nH]c3=O)cc(-c3ccc(N4CCNCC4)nc3)cc21 [GSK2816126, reference compound]
cell viability [1]: significantly impair | H3K27me3 and PCNA protein levels [2]: significantly impaired | H3K27me3 and PCNA levels [3]: down modulated | self-renewal [4]: significantly reduced | H3K27me3 and PCNA protein levels [5]: significantly impaired | H3K27me3 and PCNA levels [6]: impaired only by MC3629 | self-renewal [7]: significantly reduced | Papp at 24 h [8]: 38.9 nm/s | Δ Log Pe ([8]; respect to propranolol): −0.20

CC(C)NCC(O)COc1cccc2ccccc12 (stereo not shown) [propranolol]
Papp at 24 h [8]: 61.7 nm/s
